In patent publication US20250215029A1 (Recludix Pharma, Inc., priority 2022, published 2025):
pIC50: −log10 of the molar value. Read-outs that look alike come from different tables or passages of the source.

Tests used:
[1] = biological target: T1, Recombinant STAT6 protein (STAT6 (W123-T658)) (Homo sapiens, UniProt P42226); experiment: STAT6 Fluorescence Polarization (FP) Assay; format: binding; conditions: 45-minute incubation
T1 construct: Recombinant STAT6 protein (STAT6 (W123-T658))
T1 sequence (P42226 123-658): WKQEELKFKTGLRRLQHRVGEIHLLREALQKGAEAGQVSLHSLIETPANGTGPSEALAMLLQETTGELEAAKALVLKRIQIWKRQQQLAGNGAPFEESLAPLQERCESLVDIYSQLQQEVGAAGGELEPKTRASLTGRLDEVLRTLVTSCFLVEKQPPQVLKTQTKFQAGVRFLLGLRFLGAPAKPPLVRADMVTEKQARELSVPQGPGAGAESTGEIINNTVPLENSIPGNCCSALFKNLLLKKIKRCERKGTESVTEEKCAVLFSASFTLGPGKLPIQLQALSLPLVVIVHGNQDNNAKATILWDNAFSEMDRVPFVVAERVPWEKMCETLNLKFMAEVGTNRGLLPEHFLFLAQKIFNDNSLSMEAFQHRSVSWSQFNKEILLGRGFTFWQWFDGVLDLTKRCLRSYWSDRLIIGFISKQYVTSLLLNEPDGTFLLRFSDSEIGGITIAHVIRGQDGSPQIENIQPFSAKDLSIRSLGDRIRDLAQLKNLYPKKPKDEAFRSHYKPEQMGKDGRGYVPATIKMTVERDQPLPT
Procedure, shortened: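 Protein-probe mix (250 nM STAT6 W123-T658, 2 nM 5-FAM-pTyr peptide) in 10 mM HEPES pH 7.4, 50 mM NaCl, 1 mM EDTA, 0.05% Tween 20, 2 mM DTT; added to compound dilution series, 1% DMSO final; 45 min RT; FP read; IC50 via nonlinear regression.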

[2] = biological target: T2, Recombinant STAT3 protein (STAT3 (G127-I722)) (Homo sapiens, UniProt P40763); experiment: STAT3 Fluorescence Polarization (FP) Assay; format: binding; conditions: probe 5-FAM-GpYLPQTV-NH2 2 nM, 45-minute incubation
T2 construct: Recombinant STAT3 protein (STAT3 (G127-I722))
Procedure, shortened: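 Displacement of a 2 nM 5-FAM-labelled pY peptide (GpYLPQTV) from 25 nM recombinant STAT3 (G127-I722) was monitored by fluorescence polarization. Incubation lasted 45 min at room temperature in pH 7.4 HEPES buffer containing 1% DMSO.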

[3] = STAT6 (W123-T658) 250 nM, probe 5-FAM-Ap[…]-NH2 2 nM, read-out: STAT6 (FP assay IC50 class)
[4] = STAT3 (G127-I722) 25 nM, read-out: STAT3 (FP assay IC50 class)
[5] = STAT6 250 nM, probe 5-FAM-Ap[…]-NH2 2 nM, read-out: STAT6 (FP assay IC50)
[6] = STAT3 25 nM, read-out: STAT3 (FP assay IC50)

T2 sequence (P40763 127-722): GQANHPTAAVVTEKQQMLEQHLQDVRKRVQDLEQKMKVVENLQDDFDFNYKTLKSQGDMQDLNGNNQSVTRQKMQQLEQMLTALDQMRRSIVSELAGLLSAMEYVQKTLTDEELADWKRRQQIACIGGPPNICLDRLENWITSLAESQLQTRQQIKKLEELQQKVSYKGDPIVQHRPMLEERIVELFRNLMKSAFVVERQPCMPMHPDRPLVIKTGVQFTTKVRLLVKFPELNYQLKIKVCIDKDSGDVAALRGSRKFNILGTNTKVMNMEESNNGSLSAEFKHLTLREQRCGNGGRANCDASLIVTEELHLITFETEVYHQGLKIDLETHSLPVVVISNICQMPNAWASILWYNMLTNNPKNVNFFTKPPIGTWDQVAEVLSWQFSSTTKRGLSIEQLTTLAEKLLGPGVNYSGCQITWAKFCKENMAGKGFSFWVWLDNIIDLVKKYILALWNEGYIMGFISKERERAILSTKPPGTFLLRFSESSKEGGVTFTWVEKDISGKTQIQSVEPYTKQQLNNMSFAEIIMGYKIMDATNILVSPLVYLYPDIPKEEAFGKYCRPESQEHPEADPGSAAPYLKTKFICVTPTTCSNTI

Compound	pIC50 [1, 3]	pIC50 [2, 4]	pIC50 [1, 5]	pIC50 [2, 6]	pIC50 ([1]; STAT6 250 nM, probe 5-FAM-ApYKPFQDLI-NH2 2 nM, read-out: STAT6 (FP assay IC50))
N#CC1CN(C(=O)[C@@H]2C[C@@H](O)[C@@H]3C/C=C\C[C@H](NC(=O)c4cc5cc(C(F)(F)P(=O)(O)O)ccc5s4)C(=O)N23)CC1c1ccccc1 (mixture of isomers) [Compound 729, ((2-(((1R,3S,6S,10aS,Z)-3-((rel-trans)-3-cyano-4-phenylpyrrolidine-1-carbonyl)-1-hydroxy-5-oxo-1,2,3,5,6,7,10,10a-octahydropyrrolo[1,2-a]azocin-6-yl)carbamoyl)benzo [b]thiophen-5-yl)difluoromethyl) phosphonic acid]	≥ 6.52	6.00 to 7.00			
O=C(N[C@H]1CCC[C@H]2CC[C@@H](C(=O)N3C[C@@H](c4cccnc4)CC34CC4)N2C1=O)c1cc2cc([C@@H](F)P(=O)(O)O)ccc2s1 (single isomer, unassigned) [Compound 917]	≥ 6.52	5.00 to 6.00			
O=C(N[C@H]1CCC[C@H]2CC[C@@H](C(=O)N3CC(O)(c4ccccn4)C3)N2C1=O)c1cc2cc(C(F)(F)P(=O)(O)O)ccc2s1 [Compound 45, (difluoro(2-(((3S,6S,9aS)-3-(3-hydroxy-3-(pyridin-2-yl)azetidine-1-carbonyl)-5-oxooctahydro-1H-pyrrolo[1,2-a]azepin-6-yl)carbamoyl)benzo[b]thiophen-5-yl)methyl) phosphonic acid]			5.52 to 6.52	> 7.00	
O=C(N[C@H]1CCCC[C@H]2CC[C@@H](C(=O)N3CC(c4ccccc4)CC34CC4)N2C1=O)c1ccc2ccc(CP(=O)(O)O)nc2c1 (stereo partly drawn) [Compound 571, ((7-(((3S,6S,10aS)-5-oxo-3-(6-phenyl-4-azaspiro[2.4]heptane-4-carbonyl)decahydropyrrolo[1,2-a]azocin-6-yl)carbamoyl)quinolin-2-yl)methyl)phosphonic acid]	4.52 to 5.52	5.00 to 6.00			
O=C(/C=C/c1ccc(C(F)(F)P(=O)(O)O)cc1)N[C@H]1CCC[C@H]2CC[C@@H](C(=O)Nc3ccc(-c4ccccc4)cc3)N2C1=O [Compound 35, ((4-((E)-3-(((3S,6S,9S)-3-([1,1′-biphenyl]-4-ylcarbamoyl)-5-oxooctahydro-1H-pyrrolo[1,2-a]azepin-6-yl)amino)-3-oxoprop-1-en-1-yl)phenyl)difluoromethyl) phosphonic acid]			4.52 to 5.52	< 5.00	
O=C(N[C@H]1CCC[C@H]2CC[C@@H](C(=O)N3CC(c4cnccc4OC4CCCC4)C3)N2C1=O)c1cc2cc(C(F)P(=O)(O)O)ccc2s1 (stereo partly drawn) [Compound 695, ((2-(((3S,6S,9aS)-3-(3-(4-(cyclopentyloxy)pyridin-3-yl)azetidine-1-carbonyl)-5-oxooctahydro-1H-pyrrolo[1,2-a]azepin-6-yl)carbamoyl)benzo [b]thiophen-5-yl)fluoromethyl) phosphonic acid]	4.52 to 5.52	> 7.00			
COc1cc(C)c(C2CN(C(=O)[C@@H]3CC[C@@H]4CCC[C@H](NC(=O)c5cc6cc(CP(=O)(O)O)ccc6s5)C(=O)N43)C2)cn1 [Compound 511, ((2-(((3S,6S,9aS)-3-(3-(6-methoxy-4-methylpyridin-3-yl)azetidine-1-carbonyl)-5-oxooctahydro-1H-pyrrolo[1,2-a]azepin-6-yl)carbamoyl)benzo[b]thiophen-5-yl)methyl)phosphonic acid]	4.52 to 5.52	5.00 to 6.00			
O=C(N[C@H]1CCCC[C@H]2CC[C@@H](C(=O)N3CCC(c4cccnc4)C3)N2C1=O)c1ccc2ccc(CP(=O)(O)O)cc2c1 (stereo partly drawn) [Compound 217, ((7-(((3S,6S,10aS)-5-oxo-3-(3-(pyridin-3-yl)pyrrolidine-1-carbonyl)decahydropyrrolo[1,2-a]azocin-6-yl)carbamoyl)naphthalen-2-yl)methyl)phosphonic acid]	4.52 to 5.52	5.00 to 6.00			
N#C[C@H]1CN(C(=O)[C@@H]2CC[C@@H]3CCCC[C@H](NC(=O)c4cc5cc(C(F)(F)P(=O)(O)O)ccc5s4)C(=O)N32)C[C@@H]1C1CCCCC1 (racemic) [Compound 91, ((2-(((3S,6S,10aS)-3-(rel-(trans)-3-cyano-4-cyclohexyl-pyrrolidine-1-carbonyl)-5-oxodecahydropyrrolo [1,2-a]azocin-6-yl)carbamoyl)benzo[b]thiophen-5-yl)difluoromethyl) phosphonic acid]			≥ 6.52	5.00 to 6.00	
O=C(N[C@H]1C[C@@H](OCc2ccccc2)CC[C@H]2CC[C@@H](C(=O)N3CC(C(=O)N4CCOCC4)C3)N2C1=O)c1cc2cc(C(F)(F)P(=O)(O)O)ccc2s1 [Compound 8, ((2-(((3S,6S,8S,10aR)-8-(benzyloxy)-3-(3-(morpholine-4-carbonyl)azetidine-1-carbonyl)-5-oxodecahydropyrrolo [1,2-a]azocin-6-yl)carbamoyl)benzo [b]thiophen-5-yl)difluoromethyl) phosphonic acid]			4.52 to 5.52	6.00 to 7.00	
Cc1cnn(C2CN(C(=O)[C@@H]3CC[C@@H]4CCCC[C@H](NC(=O)c5cc6cc(C(F)(F)P(=O)(O)O)ccc6s5)C(=O)N43)C2)c1 [Compound 68, (difluoro(2-(((3S,6S,10aS)-3-(3-(4-methyl-1H-pyrazol-1-yl)azetidine-1-carbonyl)-5-oxodecahydropyrrolo [1,2-a]azocin-6-yl)carbamoyl)benzo[b]thiophen-5-yl)methyl) phosphonic acid]			4.52 to 5.52	6.00 to 7.00	
CN(C)c1ccncc1C1CN(C(=O)[C@@H]2CC[C@@H]3CCC[C@H](NC(=O)c4cc5cc([C@H](F)P(=O)(O)O)ccc5s4)C(=O)N32)C1 (single isomer, unassigned) [Compound 634]	5.52 to 6.52	> 7.00			
O=C(N[C@H]1CCC[C@H]2CC[C@@H](C(=O)N3CC(c4cnccc4N4C5COCC4C5)C3)N2C1=O)c1cc2cc(C(F)P(=O)(O)O)ccc2s1 (stereo partly drawn) [Compound 671, ((2-(((3S,6S,9aS)-3-(3-(4-(3-oxa-6-azabicyclo[3.1.1]heptan-6-yl)pyridin-3-yl)azetidine-1-carbonyl)-5-oxooctahydro-1H-pyrrolo[1,2-a]azepin-6-yl)carbamoyl)benzo [b]thiophen-5-yl)fluoromethyl) phosphonic acid]	5.52 to 6.52	> 7.00			
CC(=O)N1C[C@H](NC(=O)[C@@H]2CC[C@@H]3CCCC[C@H](NC(=O)c4cc5cc(C(F)(F)P(=O)(O)O)ccc5s4)C(=O)N32)[C@@H](O)C1 [Compound 116, ((2-(((3S, 6S,10aS)-3-(((3S,4S)-1-acetyl-4-hydroxypyrrolidin-3-yl)carbamoyl)-5-oxodecahydro-pyrrolo [1,2-a]azocin-6-yl)carbamoyl)benzo[b]thiophen-5-yl)difluoromethyl) phosphonic acid]			5.52 to 6.52	6.00 to 7.00	
N#C[C@H]1CN(C(=O)[C@@H]2CC[C@@H]3CCCC[C@H](NC(=O)c4cc5cc(CP(=O)(O)O)ccc5s4)C(=O)N32)C[C@@H]1c1ccccc1 (single isomer, unassigned) [Compound 90, ((2-(((3S,6S,10aS)-3-((3R,4S or 3S,4R)-3-cyano-4-phenylpyrrolidine-1-carbonyl)-5-oxodecahydropyrrolo [1,2-a]azocin-6-yl)carbamoyl)benzo[b]thiophen-5-yl)methyl) phosphonic acid]				< 5.00	5.52 to 6.52
COc1cc(C2CN(C(=O)[C@@H]3CC[C@@H]4CCC[C@H](NC(=O)c5cc6cc([C@@H](F)P(=O)(O)O)ccc6s5)C(=O)N43)C2)ccn1 (single isomer, unassigned) [Compound 702]	4.52 to 5.52	6.00 to 7.00			
O=C(CCC(F)(F)F)NC1(c2ccccn2)CN(C(=O)[C@@H]2CC[C@@H]3CCCC[C@H](NC(=O)c4cc5cc(C(F)(F)P(=O)(O)O)ccc5s4)C(=O)N32)C1 [Compound 124, (difluoro(2-(((3S,6S, 10aS)-5-oxo-3-(3-(pyridin-2-yl)-3-(4,4,4-trifluoro-butanamido)azetidine-1-carbonyl)decahydro-pyrrolo [1,2-a]azocin-6-yl)carbamoyl)benzo[b]thiophen-5-yl)methyl) phosphonic acid]			4.52 to 5.52	> 7.00	
CC(NC(=O)[C@@H]1CC[C@@H]2CCCC[C@H](NC(=O)c3cc4cc(C(F)(F)P(=O)(O)O)ccc4s3)C(=O)N21)c1n[nH]c2ncccc12 (stereo partly drawn) [Compound 1107, ((2-(((3S,6S,10aS)-3-((1-(1H-pyrazolo[3,4-b]pyridin-3-yl)ethyl)carbamoyl)-5-oxodecahydropyrrolo[1,2-a]azocin-6-yl)carbamoyl)benzo[b]thiophen-5-yl)difluoromethyl)phosphonic acid]	5.52 to 6.52	6.00 to 7.00			
